SMILES strings stand for the structures. Calls of active or inactive are those of the source. The rule behind the calls is not given here. Bounds are passed on as bounds.

Assay [1] deals with Glycogen synthase kinase-3 beta (Homo sapiens, UniProt P49841). The assay can be described thus: Inhibition of recombinant human GSK-3beta using YRRAAVPPSPSLSRHSSPHQ(pS)EDEE as substrate preincubated for 15 mins followed by substrate addition and measured after 60 mins by Kinase-Glo luminescent kinase assay. On the technique in general: In Kinase-Glo more light means more ATP remaining.

The next assay concerns PC-12. The assay can be described thus: Neuroprotective activity against H2O2-induced cytotoxicity in rat PC12 cells assessed as increase in cell viability at 10 uM preincubated for 12 hrs followed by replacement with fresh media and H2O2 stimulation for 12 hrs by MTT assay. In kind it is functional, cell-based.

Chain of Glycogen synthase kinase-3 beta (P49841 whole entry): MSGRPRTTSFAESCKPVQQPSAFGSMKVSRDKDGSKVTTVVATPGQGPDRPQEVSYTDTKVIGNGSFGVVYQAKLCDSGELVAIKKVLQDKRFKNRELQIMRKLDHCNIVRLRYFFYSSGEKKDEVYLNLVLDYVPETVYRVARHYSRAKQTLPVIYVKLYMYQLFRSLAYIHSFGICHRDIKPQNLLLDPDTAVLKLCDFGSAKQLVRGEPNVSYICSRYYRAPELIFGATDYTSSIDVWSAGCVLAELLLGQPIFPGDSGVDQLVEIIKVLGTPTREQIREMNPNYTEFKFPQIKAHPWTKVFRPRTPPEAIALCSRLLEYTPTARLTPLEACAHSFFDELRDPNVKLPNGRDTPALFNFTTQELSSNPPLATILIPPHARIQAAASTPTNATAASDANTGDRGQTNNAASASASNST

As to `COc1c(F)cc(-c2ocnc2C(=O)NCCCNC(=O)c2cc(C(C)(C)C)c(O)c(C(C)(C)C)c2)cc1F`, in assay [1], the concentration for half-maximal inhibition (IC50) (usually the concentration needed to halve the response being measured) stood at 960 pM.
Regarding `COc1ccc(-c2ocnc2C(=O)NCCCCNC(=O)CCc2cc(C(C)(C)C)c(O)c(C(C)(C)C)c2)cc1Cl`, the half-inhibitory concentration (IC50) in assay [1] is 840 pM. Also, the result in the assay on PC-12 was Active.
For `COc1c(F)cc(-c2ocnc2C(=O)NCCCNC(=O)CCc2cc(C(C)(C)C)c(O)c(C(C)(C)C)c2)cc1F`, in assay [1], the concentration for half-maximal inhibition (IC50) was greater than 1000 pM.
Still for that read-out and setting: then `COc1ccc(-c2ocnc2C(=O)NCCCn2cc(CNC(=O)c3cc(C(C)(C)C)c(O)c(C(C)(C)C)c3)nn2)cc1I`, with 310 pM.
Still for that read-out and setting: then `COc1ccc(-c2ocnc2C(=O)NCCCNC(=O)CCc2cc(C(C)(C)C)c(O)c(C(C)(C)C)c2)cc1F`, with greater than 1000 pM; and `COc1ccc(-c2ocnc2C(=O)NCCCNC(=O)CCc2cc(C(C)(C)C)c(O)c(C(C)(C)C)c2)cc1Cl`, with greater than 1000 pM.
Turning to `COc1ccc(-c2ocnc2C(=O)NCCCCNC(=O)c2cc(C(C)(C)C)c(O)c(C(C)(C)C)c2)cc1Cl`, the IC50 in assay [1] came to 810 pM. For the same compound, the outcome in the assay on PC-12 was Active.
With `COc1ccc(-c2ocnc2C(=O)NCCCNC(=O)/C=C/c2cc(C(C)(C)C)c(O)c(C(C)(C)C)c2)cc1I`, the IC50 in assay [1] is greater than 1000 pM.
Same read-out and setting: to `COc1ccc(-c2ocnc2C(=O)NCCCNC(=O)CCc2cc(C(C)(C)C)c(O)c(C(C)(C)C)c2)cc1I` belongs greater than 1000 pM; to `COc1ccc(-c2ocnc2C(=O)NCCCn2cc(CNC(=O)CCc3cc(C(C)(C)C)c(O)c(C(C)(C)C)c3)nn2)cc1Cl`, 270 pM; to `COc1ccc(-c2ocnc2C(=O)NCCCNC(=O)c2cc(C(C)(C)C)c(O)c(C(C)(C)C)c2)cc1Cl`, greater than 1000 pM.
Same read-out and setting: then `COc1ccc(-c2ocnc2C(=O)NCCCn2cc(CNC(=O)/C=C/c3cc(C(C)(C)C)c(O)c(C(C)(C)C)c3)nn2)cc1I`, with 330 pM; and `COc1ccc(-c2ocnc2C(=O)NCCCc2ccc(NC(=O)CCc3cc(C(C)(C)C)c(O)c(C(C)(C)C)c3)cc2)cc1Cl`, with greater than 1000 pM; and `COc1ccc(-c2ocnc2C(=O)NCCCn2cc(CNC(=O)/C=C/c3cc(C(C)(C)C)c(O)c(C(C)(C)C)c3)nn2)cc1Cl`, with 760 pM.
As to `COc1c(F)cc(-c2ocnc2C(=O)NCCCc2ccc(NC(=O)/C=C/c3cc(C(C)(C)C)c(O)c(C(C)(C)C)c3)cc2)cc1F`, the IC50 in assay [1] was found to be 950 pM. Moreover, in the assay with PC-12, the result was Active.
Turning to `COc1ccc(-c2ocnc2C(=O)NCCCc2ccc(NC(=O)/C=C/c3cc(C(C)(C)C)c(O)c(C(C)(C)C)c3)cc2)cc1F`, in assay [1], the IC50 was greater than 1000 pM.
For the compound `COc1ccc(-c2ocnc2C(=O)NCCCn2cc(CNC(=O)c3cc(C(C)(C)C)c(O)c(C(C)(C)C)c3)nn2)cc1Cl`, the IC50 in assay [1] was greater than 1000 pM.
As for `COc1ccc(-c2ocnc2C(=O)NCCCCNC(=O)CCc2cc(C(C)(C)C)c(O)c(C(C)(C)C)c2)cc1F`, the IC50 in assay [1] was determined as 780 pM. For the same compound, in the assay on PC-12, the outcome was Active.
For the compound `COc1ccc(-c2ocnc2C(=O)NCCCc2ccc(NC(=O)c3cc(C(C)(C)C)c(O)c(C(C)(C)C)c3)cc2)cc1Cl`, the IC50 in assay [1] stood at 920 pM. Besides, the result in the assay with PC-12 was Active.
`COc1ccc(-c2ocnc2C(=O)NCCCNC(=O)/C=C/c2cc(C(C)(C)C)c(O)c(C(C)(C)C)c2)cc1Cl`: in assay [1], the half-maximal inhibitory concentration (IC50) is 410 pM.
With `COc1ccc(-c2ocnc2C(=O)NCCCCNC(=O)c2cc(C(C)(C)C)c(O)c(C(C)(C)C)c2)cc1F`, the half-inhibitory concentration (IC50) in assay [1] was found to be 620 pM. Besides, the result in the assay with PC-12 was Active.
On to `COc1ccc(-c2ocnc2C(=O)NCCCn2cc(CNC(=O)CCc3cc(C(C)(C)C)c(O)c(C(C)(C)C)c3)nn2)cc1I`, for which the IC50 in assay [1] came to 810 pM.
In the case of `COC(=O)[C@@]12OC[C@]34[C@H]([C@@H](O)[C@@H]1O)[C@@]1(C)CC(=O)C(O)=C(C)[C@@H]1C[C@H]3OC(=O)[C@H](OC(=O)C=C(C)C)[C@@H]24`, in the assay with PC-12, the result was inactive.
Consider `COc1ccc(-c2ocnc2C(=O)NCCCNC(=O)c2cc(C(C)(C)C)c(O)c(C(C)(C)C)c2)cc1F`, for which the half-maximal inhibitory concentration (IC50) in assay [1] is greater than 1000 pM.
Still for that read-out and setting: to `COc1ccc(-c2ocnc2C(=O)NCCCNC(=O)c2cc(C(C)(C)C)c(O)c(C(C)(C)C)c2)cc1I` belongs 480 pM.
